Source: patent US11033562B2, “Carbohydrate derivatives used for surface modification of immune cells, use thereof and method thereof” (Xiamen Nuokangde Biological Technology Co., Ltd., priority 2018, dated 2021)

Test system: CD22-fc
Assay: Analysis of CD22 ligand on surfaces of NK-92 cells (CD22-fc binding, flow cytometry and confocal)
Type: cell-based
Details: NK-92 cells incubated with the sialic acid derivative; FIGS. 7A and 7B
Description: Culturing ATCC (American Type Culture Collection)-derived NK-92 (ATCC® CRL2407™) cells (also known as NK-92 cell lines) on a fourth alpha-MEM growth medium (comprising 12.5% (v/v) newborn bovine serum, 12.5% (v/v) horse serum, 100 U/ml recombinant IL-2) in an incubator with 5% (v/v) CO2 atmosphere at 37° C., then replacing the fourth alpha-MEM growth medium with a fifth alpha-MEM growth medium (comprising 2 mMPB-sia), continuing to culture for 48 hours, and washing for three times to obtain MPB-sia modified NK-92 cells, which is referred to as MsNK-92 cells.
Washing MPB-sia or BPC-sia modified NK-92 cells with PBS buffer for three times, adding 100 μL, PBS, adding 1 μg CD22-fc to obtain a first mixture, then culturing the first mixture on ice for 30 minutes, washing three times with PBS buffer, then adding anti-CD22-PE to obtain a second mixture, culturing the second mixture on ice for 30 minutes, washing three times, then collecting cells, quantifying the extent of CD22 binding by flow cytometry analysis, and imaging by confocal microscopy.
Increasing the concentration of MPB-sia enhanced the levels of CD22 ligand expression on cell surfaces reaching a maximum at 4 mM of MPB-sia at 24 hours (FIG. 8A). […] Next, the persistence of CD22 ligands on engineered NK-92 cells was analyzed. […]

Compound: CC(=O)N[C@H]1[C@H]([C@H](O)[C@H](O)CO)OC(O)(C(=O)O)C[C@@H]1O (stereo partly shown) [sialic acid (sia), sialic acid (N-acetylneuraminic acid)]
- CD22 binding to NK-92 cells (flow cytometry): little binding with CD22 over the background
